Reference: patent US11434222B2, “MAGL inhibitors” (H. LUNDBECK A/S, priority 2020, dated 2022)
Like-named read-outs stand apart in the source and are kept apart here.

How the values were obtained:
[1] = Kinetic solubility in PBS; assay type: physicochemical; details: aqueous buffer, kinetic from dmso stock
Method in brief: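 Solubility measured in PBS at pH 2.0 and pH 7.4, in duplicate, starting from 10 mM DMSO stock; shaken 2 h at RT at 1,100 RPM. Filtrate diluted and quantified by LC-MS/MS (positive MRM) against a DMSO standard of known concentration.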

[2] = In vitro rat blood to plasma ratio; assay type: in vitro ADME; details: 1 μM test compound
Experimental: (§1) Brain disposition was evaluated in male Sprague-Dawley rats (n=3, standard body weight). Briefly, test compound was formulated as a simple suspension, in 0.5% HPMC in water, then administered by oral gavage (5 mg/kg, 5 mL/kg). Four hours post dosing, rats were sacrificed, and terminal blood and brain samples were taken. Blood was obtained via cardiac puncture (0.1 mL) and was added into 0.4 mL CH3CN for precipitation immediately. The samples were stored at −75+/−15° C. prior to analysis. Brain tissue samples were collected after animals were fully exsanguinated, and the tissues were washed with cold saline quickly. After sectioning, brain sections were immediately frozen in liquid nitrogen and stored at −75+/−15° C. prior to analysis. Blood and brain samples were analyzed by LC/MS/MS using an optimized analytical method. Concentrations of test compound in blood and brain were quantified against matrix matched calibration standards. The total blood, plasma, and brain concentration data are presented in Table 2 alongside the calculated brain Kp (total brain concentration:total plasma concentration ratio), the calculated brain kp,uu (unbound brain concentration:unbound plasma concentration ratio), the free fractions in rat plasma and brain, and the in vitro rat blood to plasma distribution profile. The total plasma concentration data were calculated from the total blood concentration data using rat blood to plasma ratio which was measured in vitro (1 μM test compound). For kp,uu determination, the free fraction in rat plasma and brain homogenate were measured in vitro by standard equilibrium dialysis (1 μM test compound and 6 h equilibration against buffer pH 7.4; for rat plasma analysis, 100 mM stock solution of diisopropyl fluorophosphate was added to the pre-warmed rat plasma prior to adding test article).

[3] = Free fraction in rat plasma and brain homogenate by equilibrium dialysis; assay type: in vitro ADME
Experimental: as §1

[4] = system: rat formalin paw model of inflammatory pain; assay: Rat formalin paw model of inflammatory pain; assay type: in vivo
Experimental: In the rat formalin paw model formalin is administered into the right […] of a rat in order to induce pain (observed by hind limb licking duration and frequency).
Male Sprague Dawley rats were divided into three cohorts to enable testing in the Laboras™ equipment to be carried out over three days in a balanced design to give treatment groups of 10. On the day of the study, male Sprague Dawley rats were weighed, tail marked and dosed orally with vehicle, test compound (0.1, 0.3, 0.6, 1, 3 or 10 mg/kg) or pregabalin (30 mg/kg) 4 h pre-test using a 5 mL/kg dosing volume. For Example 6 the vehicle used was 0.5% methylcellulose in water and for Example 8 the vehicle used was 20% HP-b-CD. Up to six animals were dosed at a time. After 4 h, rats received an intraplantar injection of 50 μL of a 2.5% v/v formalin solution into the right hind paw. Rats were immediately placed into the Laboras™ cages and data acquisition started. The primary measures recorded by Laboras™ for the formalin paw model are hind limb licking duration and frequency. Locomotion is also reported as maximum speed, average speed when moving or over the whole-time bin and distance travelled. After 40 min, when data acquisition was complete, rats were removed from the cages.
On removal from the test cages, rats were anaesthetised with the gaseous anaesthetic isoflu-rane (5% v/v isoflurane in oxygen) and blood samples were collected by cardiac puncture. Brains were then removed, rinsed in phosphate buffered saline (PBS), hemi-sected and frozen separately in liquid nitrogen.
Data were analysed with Statistica software (TIBCO, USA version 11.1). All data are expressed as means±standard error of the mean (sem) to one decimal place. […] Time course data were analysed by repeated measures analysis of variance (ANOVA) followed by one-way ANOVAs at each time point and subsequent Dunnett's post hoc tests. […]

[5] = Thermodynamic solubility in PBS; assay type: physicochemical; details: aqueous buffer, thermodynamic from solid; PBS pH 7.4; 24 hours at RT
Experimental: The thermodynamic solubility of test article was determined in PBS at pH 7.4 in duplicate. The test article (1.5 mg) in PBS was incubated for 24 hours at RT with shaking at 1100 rpm. Sample was then filtered using a vacuum manifold, diluted, and analyzed by LC-MS/MS. Chromatographic conditions: Phenomenex Synergi 4μ Hydro-PR 80A column (2.0×30 mm) coupled with pre-guard column; mobile phase=0.1% formic acid in acetonitrile and 0.1% formic acid in water; flowrate=0.65 mL/min; column temperature=40 degrees C.; injection volume: 10 μL.
Mobile phase: 0.1% formic acid in acetonitrile (A) and 0.1% formic acid in water (B)
Mass conditions: Turbo spray ion source; ESI ionization model; MRM scan type; Collison gas=6 L/min; Curtain gas=30 L/min; Nebulize gas=50 L/min; Auxiliary gas=50 L/min; Temperature=500 degrees C.; Ion spray voltage=+5500 v (positive MRM).
The filtered solution was analyzed and quantified against a standard of known concentration in DMSO using UPLC coupled with mass spectral peak identification and quantitation. Solubility values of the test articles were calculated using Microsoft Excel as follows (DF is the dilution factor): […]

[6] = PBS pH 2.0, RT, read-out: pH 2 Solubility (kinetic)
[7] = PBS pH 7.4, RT, read-out: pH 7.4 Solubility (kinetic)
[8] = rat brain homogenate, buffer pH 7.4, read-out: Rat brain free fraction
[9] = rat plasma, buffer pH 7.4, read-out: Rat plasma free fraction

SMILES	solubility kinetic at 2 h [1, 6]	solubility kinetic at 2 h [1, 7]	blood plasma ratio at 1 μM [2]	fraction unbound at 6 h, 1 μM [3, 8]	fraction unbound at 6 h, 1 μM [3, 9]	measure of spontaneous pain (hind limb licking frequency) ([4]; 0.3 mg/kg and 0.6 mg/kg p.o. 4 h pre-test, late phase, FIG. 2)	measure of spontaneous pain (hind limb licking frequency) ([4]; 1 mg/kg, 3 mg/kg and 10 mg/kg p.o. 4 h pre-test, both early and late phases, FIG. 2)	solubility thermodynamic at 24 h [5]	measure of spontaneous pain (hind limb licking frequency) ([4]; 0.6 mg/kg, 3 mg/kg and 10 mg/kg p.o. 4 h pre-test, early and/or late phases, FIG. 1)
O=C(NC1CCOCC1)[C@H]1CC12CCN(C(=O)OC(C(F)(F)F)C(F)(F)F)CC2 [Example 8, 1,1,1,3,3,3-hexafluoropropan-2-yl (S)-1-[(oxan-4-yl)carbamoyl]-6-azaspiro[2.5]octane-6-carboxylate]	308 µM	256 µM	0.96	0.167	0.427	statistically significant reduction	statistically significant reduction	0.606 mg/mL	–
O=C(Nc1cccnn1)[C@H]1CC12CCN(C(=O)OC(C(F)(F)F)C(F)(F)F)CC2 [Example 6, 1,1,1,3,3,3-hexafluoropropan-2-yl (S)-1-(pyridazin-3-ylcarbamoyl)-6-azaspiro[2.5]octane-6-carboxylate]	240 µM	106 µM	0.72	0.04	0.055	–	–	0.0715 mg/mL	statistically significant reduction
